Assay results published in US8389509B2, “Substituted pyrazole compounds” (Bristol-Myers Squibb Company, priority 2009, dated 2013).
Where a name gives a salt, the structure may show the parent alone.

Legend:
S1P3 = S1P3 (Homo sapiens, UniProt Q99500); assay: Method B: Receptor [35S] GTPγS SPA Binding Assay, S1P3; format: biochemical; design: expressed in transfected cells; host or cells: CHO cells; conditions: S1P3 transfected CHO cell membranes
Description: (§1) Method B: Receptor [^35S] GTPγS SPA Binding Assays
(§2) Membranes prepared from S1P1 or S1P3 transfected CHO cells (2 μg protein) were incubated in 96-well white plates (CORNING® 3693) with test compounds diluted in DMSO, in 50 μl of reaction mixture containing 7.5 μA WGA-PVT beads (20 mg/ml), and 5 μM GDP, 20 mM HEPES pH 7.4, 100 mM NaCl, 1 mM EDTA, 5 mM MgCl2, 10 μg/ml saponin, 0.1% BSA, and 1 μM leupeptin. The assay was initiated with the addition of […] of 0.2 nM [^35S]-GTPγS (1250 Ci/mmol; NEN) in assay buffer. After 90 min incubation at room temperature, spin the plate at 1000 rpm for 5 min. The bound radionuclides were measured at TOPCOUNT®, expressed as % response relative to S1P (1 μM) activation. Data was analyzed using the four parameter logistic equation in Excel. The four parameters in the equation, Y=A+((B−A)/(1+((EC50/X)^D))), are described as following: A is the Y value (agonist activity) at the bottom plateau; B is the Y value at the top plateau; EC50 is the X value (agonist concentration) when the response is halfway between bottom and top; D is Hill coefficient. Curves were not generated for compounds having Ymax values were below 50%.
(§3) Compounds of the present invention and Comparative Compound A were tested in the Receptor [^35S] GTPγS Binding Assays (Method A) and Receptor [^35S] In some instances, the value is an average of multiple experiments where N is the number of experiments conducted that provided satisfactory dose response curves. When more than one batch of an example was tested, the value presented is from a batch which allowed a comparison of GTPγS S1P1 and GTPγS S1P3 in which the most number of experiments were performed. Preferably, the same batch was examined in Method A and Method B. Data was not averaged across different batches of an example compound.

S1P1 [1] = molecular target: T1, S1P1 (Homo sapiens, UniProt P21453); assay: S1P1 Binding Assay (33P-S1P competition, CHO membranes); conditions: membranes of CHO cells expressing human S1P1, 33P-S1P ligand; read-out: S1P1 B IC50
T1 construct: expressed in transfected cells; host or cells: CHO cells
T1 sequence (P21453 whole entry): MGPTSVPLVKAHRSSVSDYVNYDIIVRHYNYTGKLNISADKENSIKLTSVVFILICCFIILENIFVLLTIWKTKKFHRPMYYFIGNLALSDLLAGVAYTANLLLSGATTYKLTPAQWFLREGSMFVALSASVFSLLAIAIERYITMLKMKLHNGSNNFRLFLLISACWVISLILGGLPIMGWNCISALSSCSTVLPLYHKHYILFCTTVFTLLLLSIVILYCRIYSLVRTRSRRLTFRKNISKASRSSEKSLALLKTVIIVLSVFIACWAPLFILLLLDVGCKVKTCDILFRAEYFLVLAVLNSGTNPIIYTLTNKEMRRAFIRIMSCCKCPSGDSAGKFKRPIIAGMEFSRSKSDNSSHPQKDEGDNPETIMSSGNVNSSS
Description: Membranes were prepared from CHO cells expressing human S1P1. Cells were dissociated in buffer containing 20 mM HEPES, pH 7.5, 50 mM NaCl, 2 mM EDTA and Protease Inhibitor cocktail (Roche), and disrupted on ice using the Polytron homogenizer. The homogenate was centrifuged at 20,000 rpm (48,000 g) and the supernatant was discarded. The membrane pellets were resuspended in buffer containing 50 mM HEPES, pH 7.5, 100 mM NaCl, 1 mM MgCl2, 2 mM EDTA and stored in aliquots at −80° C. after protein concentration determination.
Membranes (2 μg/well) and 0.03 nM final concentration of ^33P-S1P ligand (1 mCi/ml, American Radiolabeled Chemicals) were added to the compound plates. Binding was performed for 60 min at room temperature, terminated by collecting the membranes onto GF/B filter plates, and radioactivity was measured by TOPCOUNT®. The competition data of the test compounds over a range of concentrations was plotted as percentage inhibition of radioligand specific binding. The IC50 is defined as the concentration of competing ligand needed to reduce specific binding by 50%.
Compounds of the present invention and Comparative Compound A were tested in the S1P1 binding assay described hereinabove and the results rounded to two digits, shown in Table A were obtained. In some instances, the value is an average of multiple experiments where N is the number of experiments conducted that provided satisfactory dose response curves. When more than one batch of an example was tested, the value presented is from the batch which allowed a comparison of GTPγS S1P1 and GTPγS S1P3 in Method A (Data shown in Table B). Data was not averaged across different batches of an example compound.

S1P1 [2] = molecular target: T1, S1P1; assay: Method B: Receptor [35S] GTPγS SPA Binding Assay, S1P1; format: biochemical; conditions: for EC50: Method B (SPA), S1P1 transfected CHO cell membranes; for GTPγS S1P3/S1P1 (Method B): ratio of S1P3 EC50 to S1P1 EC50, Method B
Description: as §1, §2, §3

S1P1 [3] = molecular target: T1, S1P1; assay: Method A: Receptor [35S] GTPγS Binding Assay, S1P1; format: biochemical; conditions: ratio of S1P3 EC50 to S1P1 EC50, Method A
Description: Method A: Receptor [35S] GTPγS Binding Assays
Compounds were loaded in a 384 FALCON® v-bottom plate (0.5 μl/well in a 3-fold dilution). Membranes prepared from S1P1/CHO cells or EDG3-Gal5-bla HEK293T cells were added to the compound plate (40 μl/well, final protein 3 μg/well) with MULTIDROP®. [^35S]GTP (1250 Ci/mmol, Perkin Elmer) was diluted in assay buffer: 20 mM HEPES, pH7.5, 10 mM MgCl2, 150 mM NaCl, 1 mM EGTA, 1 mM DTT, 10 μM GDP, 0.1% fatty acid free BSA, and 10 μg/ml Saponin to 0.4 nM. 40 μl of the [^35S] GTP solution was added to the compound plate with a final concentration of 0.2 nM. The reaction was kept at room temperature for 45 min. At the end of incubation, all the mixtures in the compound plate were transferred to a 384 well FB filter plates via GPCR robot system. The filter plate was washed with water 4 times by using the modified manifold Embla plate washer and dried at 60° C. for 45 min. 30 μA of MicroScint 20 scintillation fluid was added to each well for counting at Packard TOPCOUNT®. EC50 is defined as the agonist concentration that corresponds to 50% of the Ymax (maximal response) obtained for each individual compound tested.
as §3

Sequence of S1P3 (Q99500 whole entry): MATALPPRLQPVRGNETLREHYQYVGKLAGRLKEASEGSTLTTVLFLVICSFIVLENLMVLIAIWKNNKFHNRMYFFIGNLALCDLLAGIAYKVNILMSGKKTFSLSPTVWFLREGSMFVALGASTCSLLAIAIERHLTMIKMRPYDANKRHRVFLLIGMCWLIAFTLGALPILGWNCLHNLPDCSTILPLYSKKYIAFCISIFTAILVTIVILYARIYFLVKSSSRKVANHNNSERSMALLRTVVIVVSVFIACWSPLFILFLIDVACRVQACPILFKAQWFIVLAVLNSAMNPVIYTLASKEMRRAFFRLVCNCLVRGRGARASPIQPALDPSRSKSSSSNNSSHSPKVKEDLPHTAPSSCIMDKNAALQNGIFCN

SMILES | EC50 (S1P3) | IC50 (S1P1 [1]) | EC50 (S1P1 [2]) | GTPγS S1P3/S1P1 (Method B) (S1P1 [2]) | GTPγS S1P3/S1P1 (Method A) (S1P1 [3])
O=C(O)C1CN(Cc2ccc(-c3noc(-c4cnn(-c5ccccn5)c4C4CCCC4)n3)cc2)C1 [Example 7, 1-(4-(5-(5-cyclopentyl-1-(pyridin-2-yl)-1H-pyrazol-4-yl)-1,2,4-oxadiazol-3-yl)benzyl)azetidine-3-carboxylic acid] | 220 nM | 0.19 nM | 0.087 nM | 2,500 | 
CC(C)CNc1c(-c2nc(-c3ccc(CN4CC(C(=O)O)C4)cc3)no2)cnn1-c1ccccc1 [Example 12, 1-(4-(5-(5-(Isobutylamino)-1-phenyl-1H-pyrazol-4-yl)-1,2,4-oxadiazol-3-yl)benzyl)azetidine-3-carboxylic acid] | 9800 nM | 1.7 nM | 0.28 nM | 35,000 | 
CCCCNc1c(-c2nc(-c3ccc(CN4CC(C(=O)O)C4)cc3)no2)cnn1-c1ccccc1 [Example 13, 1-(4-(5-(5-(n-butylamino)-1-phenyl-1H-pyrazol-4-yl)-1,2,4-oxadiazol-3-yl)benzyl)azetidine-3-carboxylic acid] | 51 nM | 3.1 nM | 0.17 nM | 300 | 
Cc1c(-c2nc(-c3ccc(CN4CC(C(=O)O)C4)cc3)no2)cnn1C1CCCCC1 [Example 9, 1-(4-(5-(1-cyclohexyl-5-methyl-1H-pyrazol-4-yl)-1,2,4-oxadiazol-3-yl)benzyl)azetidine-3-carboxylic acid] | 710 nM |  | 1.3 nM | 550 | 
CC(C)Nc1c(-c2nc(-c3ccc(CN4CC(C(=O)O)C4)cc3)no2)cnn1-c1ccccc1 [Example 3, 1-(4-(5-(5-(isopropylamino)-1-phenyl-1H-pyrazol-4-yl)-1,2,4-oxadiazol-3-yl)benzyl)azetidine-3-carboxylic acid] | 1700 nM | 0.48 nM | 0.15 nM | 11,000 | 

The next lines start with the values.

EC50 (S1P3) | IC50 (S1P1 [1]) | EC50 (S1P1 [2]) | GTPγS S1P3/S1P1 (Method B) (S1P1 [2]) | GTPγS S1P3/S1P1 (Method A) (S1P1 [3]) | SMILES
 |  |  | 78 | 1.2 | O=C(O)C1CN(Cc2ccc(-c3noc(-c4cc(-c5ccccc5)c(C(F)(F)F)s4)n3)cc2)C1 [Comp. A, 1-(4-(5-(4-phenyl-5-(trifluoromethyl)thiophen-2-yl)-1,2,4-oxadiazol-3-yl)benzyl)-azetidine-3-carboxylic acid, reference compound]
7100 nM | 0.98 nM | 2.1 nM | 3,400 |  | O=C(O)C1CN(Cc2ccc(-c3noc(-c4cnn(-c5ccccc5)c4Br)n3)cc2)C1 [Example 14, 1-(4-(5-(5-Bromo-1-phenyl-1H-pyrazol-4-yl)-1,2,4-oxadiazol-3-yl)benzyl)azetidine-3-carboxylic acid, 2,2,2-trifluoroacetic acid salt]
400 nM | 1.1 nM | 0.19 nM | 2,100 |  | CCNc1c(-c2nc(-c3ccc(CN4CC(C(=O)O)C4)cc3)no2)cnn1-c1ccccc1 [Example 4, 1-(4-(5-(5-(ethylamino)-1-phenyl-1H-pyrazol-4-yl)-1,2,4-oxadiazol-3-yl)benzyl)azetidine-3-carboxylic acid]
1100 nM | 1.1 nM | 0.42 nM | 2,600 |  | O=C(O)C1CN(Cc2ccc(-c3noc(-c4cnn(-c5ccccn5)c4-c4ccccc4)n3)cc2)C1 [Example 10, 1-(4-(5-(5-phenyl-1-(pyridin-2-yl)-1H-pyrazol-4-yl)-1,2,4-oxadiazol-3-yl)benzyl)azetidine-3-carboxylic acid]
2000 nM |  | 1.9 nM | 1,100 |  | O=C(O)C1CN(Cc2ccc(-c3noc(-c4cnn(-c5ccccc5)c4Cl)n3)cc2)C1 [Example 11, 1-(4-(5-(5-chloro-1-phenyl-1H-pyrazol-4-yl)-1,2,4-oxadiazol-3-yl)benzyl)azetidine-3-carboxylic acid]
